Consider three molecules from US8703825B2, “Compounds, use thereof as medicaments, and method of preparation thereof” (Universite de Lorraine, priority 2008, dated 2014).

≈ marks a conversion by molar mass, not a printed value. Entries after “also recorded” stand apart in the source; their conditions may differ. Like-named read-outs stand apart in the source and are kept apart here.

Common to all, as to type: cell-based
Test [1] deals with Gram-positive and Gram-negative bacteria (reference strains and clinical isolates). Briefly: Antibacterial activity overall (MIC determination). The settings on record: summary of MIC results. The text has this:
According to the joint recommendations: • of the “Comite de l′Antibiogramme de la Société Française de Microbiologie” (Antibiogram Committee of the French Society of Microbiology) (CA-SFM) [CA-SFM. Communique 2007 (Edition of January 2007). http://www.sfm.asso.fr] and, • of the “Clinical and Laboratory Standards Institute” (CLSI, formerly “National Committee for Clinical Laboratory Standards” or NCCLS) [NCCLS. 2003. Methods for dilution antimicrobial susceptibility tests for bacteria that grow aerobically; approved standard M7-A6, 6th ed. National Committee for Clinical Laboratory Standards, Wayne, Pa., USA.], five reference bacterial strains were used for the study: Escherichia coli ATCC 25922, Pseudomonas aeruginosa ATCC 27853, Staphylococcus aureus ATCC 25923 & ATCC 29213 and Enterococcus faecalis ATCC 29212.
(§1) The study also included 5 clinical isolates, obtained from rectal samples and/or from haemoculture: • […] E. coli (EcR1), • methicillin-resistant S. aureus (mecA gene) (SaR1), • vancomycin-resistant E. faecium (vanB gene) (EfR1), • E. faecalis resistant to teicoplanin and to vancomycin (vanA gene) (EfR2), and • P. aeruginosa overexpressing an efflux pump (PaRl).
(§2) Procedure for determining the Minimum Inhibitory Concentration (MIC)
(§3) The minimum inhibitory concentrations (MIC) were determined by the standardized method of microdilution in liquid medium (96-well microplate, U-shaped bottom, Greiner), in Mueller-Hinton broth, with a final inoculum of 10^5-10^6 CFU/mL, depending on the bacterial species, in accordance with the recommendations of the CLSI.
(§4) For the determination of MIC, bacterial suspensions are prepared from an isolated colony, taken from a Mueller-Hinton agar, taken up in 5 mL of Mueller-Hinton broth. After 24 h of growth, the bacterial suspensions are diluted in sterile distilled water in order to obtain an inoculum of 10^5-10^6 CFU/mL. The purity of the bacterial suspensions is tested by isolation on agar and Gram staining.
(§5) The results are the mean value of 4 independent experiments.

Test [2] concerns Pseudomonas aeruginosa ATCC 27853. Briefly: MIC by microdilution in liquid medium (CLSI / CA-SFM). The settings on record: P. aeruginosa ATCC 27853; HaCaT cell lines, 24 h exposure. (In general: Broth dilution looks for growth in wells or tubes with falling amounts of substance.)
Test [3] deals with vancomycin-resistant E. faecium (vanB gene) (EfR1). Briefly: MIC by microdilution, clinical isolate. To be noted: Enterococcus faecium. As for the experimental part:
as §1
(§6) The isolates were selected on the basis of their resistance profile. The resistance profiles were determined on VITEK2 (BioMérieux, France).
(§7) The bacteria are cultivated either on Mueller-Hinton agar (Difco, 225250), or in Mueller-Hinton broth (Difco, 275730), at 35° C. [Grare M, Mourer M, Fontanay S, Regnouf-de-Vains J B, Finance C, Duval R E. In vitro activity of para-guanidinoethylcalix[4]arene against susceptible and antibiotic-resistant Gram-negative and Gram-positive bacteria. J. Antimicrob Chemother. 2007; 60: 575-81].
(§8) The various molecules tested were prepared in the form of aqueous solution at 10^−2 mol/L. The solutions used for the biological tests are freshly prepared, and stored for a week at most, at 4° C. The solutions are filtered through a filter with pores of 0.22 μm (Millex®GP; 0.22 μm; Millipore; France) before each test.
as §2, §3, §4, §5

The test system of test [4] is penicillinase-producing E. coli (EcR1). Briefly: MIC by microdilution, clinical isolate. To be noted: Escherichia coli. As for the experimental part:
as §1, §6, §7, §8, §2, §3, §4, §5

Test [5] concerns P. aeruginosa overexpressing an efflux pump (PaR1). Briefly: MIC by microdilution, clinical isolate. To be noted: Pseudomonas aeruginosa. As for the experimental part:
as §1, §6, §7, §8, §2, §3, §4, §5

Test [6] concerns E. faecalis resistant to teicoplanin and to vancomycin (vanA gene) (EfR2). Briefly: MIC by microdilution, clinical isolate. To be noted: Enterococcus faecalis. The method, then: as §1, §6, §7, §8, §2, §3, §4, §5
[7] abbreviates: clinical isolate, E. faecium (vanB gene), read-out: MIC.
[8] abbreviates: clinical isolate, penicillinase-producing E. coli, read-out: MIC.
The mark [9] stands for this setting: clinical isolate, E. faecalis (vanA gene), read-out: MIC.

Usually MIC stands for the least concentration at which growth counts as inhibited. As to `[H]/N=C(\N/C(=N/[H])NCCCCCCNC(=N)NC(=N)Nc1ccc(Cl)cc1)Nc1ccc(Cl)cc1` [CHX, chlorhexidine], in test [1], the “antibacterial activity (in words)” value was “broad-spectrum antibacterial activity”. Moreover, the “Selectivity index (SI=IC50/MIC)” value in test [2] is listed as 2-4. Besides, the MIC is 1 µg/mL (≈ 1.98 µM) in test [3] (setting [7]), 0.5 µg/mL (≈ 0.989 µM) in test [4] (setting [8]), 8 µg/mL (≈ 15.8 µM) in test [5] and 2 µg/mL (≈ 3.96 µM) in test [6] (setting [9]).

Turning to `N=C(N)c1ccc(OCCCCCCOc2ccc(C(=N)N)cc2)cc1` [HX, hexamidine], the “Selectivity index (SI=IC50/MIC)” value in test [2] was 1-2. Besides, the minimal inhibitory concentration (MIC) in test [3] stood at 2 µg/mL (≈ 5.64 µM); in test [4], 8 µg/mL (≈ 22.6 µM); in test [5], 64 µg/mL (≈ 181 µM); in test [6], 4 µg/mL (≈ 11.3 µM).

Consider `N=C(N)NCCc1ccc(OCCCCCCOc2ccc(CCNC(=N)N)cc2)cc1` [compound 6, 1,6-bis(4-(2-guanidinoethyl)phenoxy)hexane], for which, in test [1], the “antibacterial activity (in words)” value was “maintains comparable activity on the clinical isolates; also recorded: better overall than hexamidine and is comparable to that of chlorhexidine”. In addition, the “Selectivity index (SI=IC50/MIC)” value in test [2] is on record as 0.25-0.5. Further, the MIC in test [3] (setting [7]) worked out at 8 µg/mL (≈ 18.2 µM); in test [4] (setting [8]) it was 4 µg/mL (≈ 9.08 µM); in test [5], 32 µg/mL (≈ 72.6 µM); in test [6] (setting [9]), 16 µg/mL (≈ 36.3 µM).
